Data taken from patent publication US10016378B2, “Compositions and methods for inhibiting intimal hyperplasia” (priority 2014, dated 2018).
“Also recorded” adds a separate entry of the source.

Columns and labels:
[1] = Side-effects in the various in vivo models
[2] = system: balloon-injured rat aortas; test: Balloon injury (abdominal aortic denudation) of Lewis rat aortas; type: in vivo, Lewis rats
Method: For example, abdominal aortic denudation in Lewis rats was performed to induce neointimal proliferation. […] The development of intimal hyperplasia was analyzed by histopathology. Confocal immunofluorescence microscopy and 3-dimensional reconstruction was performed to identify cell proliferation (Ki67) and apoptosis (TUNEL).

[3] = system: human vascular SMCs; test: Cultured human vascular SMCs, PDGF stimulation / staurosporine apoptosis induction; type: cell-based; conditions: VDAC closure/inhibition
From the text: Proliferation and apoptosis leveled off after twenty eight (28) days when there was also no further progression of myointimal disease (FIGS. 1c, 1e). […] Human vascular SMCs were isolated from fresh hMA and characterized (Extended Data FIGS. 4e-4f). PDGF was then shown to induce ΔΨm hyperpolarization in cultured SMCs (Extended Data FIG. 4g), similar to the ΔΨm hyperpolarization previous observed in injured hMAs (FIG. 1f). Thus, mitochondrial ΔΨm hyperpolarization in myointimal SMCs and cultured SMCs coincided with the availability of PDGF.

## O=C(O)C(Cl)Cl [DCA, dichloroacetate]
[1]
  side-effects or off-target effects: didn't show any side-effects or off-target effects
[2]; DCA treatment for 28 days via drinking water (0.75 g/L), p=0.006 vs. untreated 28-day control (24.2±3.5%)
  luminal obliteration (intimal hyperplasia): 7.9±6.3%
[2]; delayed DCA treatment starting on day 14, p=0.001 vs. untreated 28-day control
  luminal obliteration (neointimal formation): 3.5±2.9%
[2]; in vivo, after mechanical endothelial denudation
  vessel re-endothelialization: does not impair; also recorded: did not prevent vessel re-endothelialization; also recorded: nor inhibited vessel re-endothelialization

## O=S(=O)(O)c1cc(N=C=S)ccc1C=Cc1ccc(N=C=S)cc1S(=O)(=O)O [DIDS]
[3]
  SMC ΔΨm: caused ΔΨm hyperpolarization; also recorded: increased
[3]; staurosporine-induced
  apoptosis: rendered SMCs resistant; also recorded: reduced

## Cc1ccc(NC(=O)c2ccc(CN3CCN(C)CC3)cc2)cc1Nc1nccc(-c2cccnc2)n1 [imatinib]
[2]; compared to untreated control 28 vessels
  myointimal lesions: only minor lesions
